Measurements published in ChEMBL document CHEMBL5143623, “Discovery of novel spiro compound as RAF kinase inhibitor with in vitro potency against KRAS mutant cancer” (Bioorg Med Chem Lett, 2022).
Converted amounts (≈) assume the structure as drawn. The source made the active and inactive calls. The rule behind the calls is not given here.

Key:
NCI-H358 [1] = assay: Growth inhibition of human H358 cells expressing KRAS […] mutant measured after 3 days by Cell-titer Glo assay; assay type: functional; settings: NCI-H358, 72 h, time 3 day
[2] = biological target: RAF proto-oncogene serine/threonine-protein kinase (Homo sapiens, UniProt P04049); assay: Inhibition of human recombinant cRAF measured after 1 hr by TR-FRET assay
Chain of RAF proto-oncogene serine/threonine-protein kinase (P04049 whole entry): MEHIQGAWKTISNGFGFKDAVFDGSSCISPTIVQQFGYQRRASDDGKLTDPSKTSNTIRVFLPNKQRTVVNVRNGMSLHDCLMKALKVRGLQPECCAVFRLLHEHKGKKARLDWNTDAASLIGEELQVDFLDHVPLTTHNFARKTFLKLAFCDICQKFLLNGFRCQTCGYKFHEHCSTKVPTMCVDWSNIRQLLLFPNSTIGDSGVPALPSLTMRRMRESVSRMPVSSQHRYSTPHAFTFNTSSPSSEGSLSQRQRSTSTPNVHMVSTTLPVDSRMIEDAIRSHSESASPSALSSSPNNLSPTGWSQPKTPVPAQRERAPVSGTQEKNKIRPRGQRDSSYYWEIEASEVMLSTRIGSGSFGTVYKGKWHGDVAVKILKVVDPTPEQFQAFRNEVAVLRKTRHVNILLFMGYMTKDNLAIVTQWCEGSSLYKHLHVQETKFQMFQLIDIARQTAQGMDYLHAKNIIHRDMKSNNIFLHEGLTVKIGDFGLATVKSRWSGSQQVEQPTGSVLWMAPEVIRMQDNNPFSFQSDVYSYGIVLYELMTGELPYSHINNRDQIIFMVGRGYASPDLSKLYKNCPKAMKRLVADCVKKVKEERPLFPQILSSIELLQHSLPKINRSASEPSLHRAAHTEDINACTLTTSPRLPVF

[3] = Tmax in mouse at 2 mg/kg, po by LC-MS/MS analysis; assay type: ADME, organism-based; settings: in vivo
A-375 = assay: Growth inhibition of human A375 cells expressing bRaf V600E mutant measured after 3 days by Cell-titer Glo assay; assay type: functional; settings: A-375, 72 h, time 3 day
[4] = Stability of compound in mouse liver microsomes assessed as half life; assay type: ADME, Microsome
[5] = Cmax in rat at 2 mg/kg, po by LC-MS/MS analysis; assay type: ADME, organism-based; parameters: dose 2 mg/kg, route po; settings: in vivo
[6] = Tmax in rat at 2 mg/kg, po by LC-MS/MS analysis; assay type: ADME, organism-based; settings: in vivo
[7] = Volume of distribution in mouse at 1 mg/kg, iv by LC-MS/MS analysis; assay type: ADME, organism-based; settings: in vivo
[8] = AUC(0 to t) in rat at 2 mg/kg, po by LC-MS/MS analysis; assay type: ADME, organism-based; parameters: dose 2 mg/kg, route po; settings: in vivo
NCI-H358 [9] = assay: Effect on Erk signalling pathway in human H358 cells assessed as increase in Erk phosphorylation by HTRF assay; assay type: functional, cell-based
[10] = biological target: Voltage-gated inwardly rectifying potassium channel KCNH2 (Homo sapiens, UniProt Q12809); assay: Inhibition of hERG; assay type: toxicity
[11] = MRT (0 to infinity) in mouse at 1 mg/kg, iv by LC-MS/MS analysis; assay type: ADME, organism-based; settings: in vivo
Cytochrome P450 2C19 = Cytochrome P450 2C19 (Homo sapiens, UniProt P33261); assay: Inhibition of CYP2C19 in human liver microsomes; assay type: ADME, Microsome
Chain of Cytochrome P450 2C19 (P33261 whole entry): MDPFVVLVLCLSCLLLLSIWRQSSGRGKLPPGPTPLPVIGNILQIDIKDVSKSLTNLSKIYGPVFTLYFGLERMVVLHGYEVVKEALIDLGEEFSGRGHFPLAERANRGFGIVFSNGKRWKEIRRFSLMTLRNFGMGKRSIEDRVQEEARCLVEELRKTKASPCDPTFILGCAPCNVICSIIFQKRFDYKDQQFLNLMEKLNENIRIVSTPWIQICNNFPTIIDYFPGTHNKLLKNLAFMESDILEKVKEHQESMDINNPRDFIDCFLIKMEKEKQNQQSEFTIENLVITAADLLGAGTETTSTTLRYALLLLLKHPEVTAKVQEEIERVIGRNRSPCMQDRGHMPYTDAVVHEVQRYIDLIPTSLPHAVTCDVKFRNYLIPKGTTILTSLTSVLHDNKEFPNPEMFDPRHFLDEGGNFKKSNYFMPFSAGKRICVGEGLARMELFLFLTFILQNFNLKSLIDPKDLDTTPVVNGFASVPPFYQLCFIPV

[12] = Hepatic clearance in rat liver microsomes; assay type: ADME, Microsome
[13] = Stability of compound in rat liver microsomes assessed as half life; assay type: ADME, Microsome
[14] = biological target: Serine/threonine-protein kinase B-raf (Homo sapiens, UniProt P15056); assay: Inhibition of human recombinant wild-type bRAF measured after 1 hr by TR-FRET assay
Chain of Serine/threonine-protein kinase B-raf (Homo sapiens, UniProt P15056) (P15056 whole entry): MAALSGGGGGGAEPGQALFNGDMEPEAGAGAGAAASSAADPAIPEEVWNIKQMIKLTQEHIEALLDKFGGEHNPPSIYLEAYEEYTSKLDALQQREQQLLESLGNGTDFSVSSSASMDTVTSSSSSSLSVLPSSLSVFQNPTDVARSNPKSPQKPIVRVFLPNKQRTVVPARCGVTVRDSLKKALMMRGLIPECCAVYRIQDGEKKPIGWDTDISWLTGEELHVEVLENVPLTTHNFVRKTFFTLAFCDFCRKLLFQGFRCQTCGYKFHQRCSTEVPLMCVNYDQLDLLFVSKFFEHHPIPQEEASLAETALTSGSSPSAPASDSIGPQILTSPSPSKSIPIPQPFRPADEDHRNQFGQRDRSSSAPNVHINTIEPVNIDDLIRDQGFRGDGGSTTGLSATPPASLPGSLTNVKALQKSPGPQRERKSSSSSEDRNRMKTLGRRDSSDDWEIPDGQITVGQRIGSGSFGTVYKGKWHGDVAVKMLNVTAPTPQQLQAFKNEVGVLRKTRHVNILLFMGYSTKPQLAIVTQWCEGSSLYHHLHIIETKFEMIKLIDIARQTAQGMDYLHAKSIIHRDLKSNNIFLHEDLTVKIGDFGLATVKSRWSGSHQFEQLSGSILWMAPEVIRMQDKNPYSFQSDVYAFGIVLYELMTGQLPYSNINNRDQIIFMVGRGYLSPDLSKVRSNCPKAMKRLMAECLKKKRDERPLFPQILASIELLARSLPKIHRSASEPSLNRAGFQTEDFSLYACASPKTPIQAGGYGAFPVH

[15] = Clearance in rat at 1 mg/kg, iv by LC-MS/MS analysis; assay type: ADME, organism-based; settings: in vivo
[16] = Half life in rat at 2 mg/kg, po by LC-MS/MS analysis; assay type: ADME, organism-based; settings: in vivo
[17] = MRT (0 to infinity) in mouse at 2 mg/kg, po by LC-MS/MS analysis; assay type: ADME, organism-based; settings: in vivo
[18] = Hepatic clearance in human liver microsomes; assay type: ADME, Microsome
[19] = Stability of compound in Dog liver microsomes assessed as half life; assay type: ADME, Canis lupus familiaris, Microsome
[20] = MRT (0 to infinity) in rat at 2 mg/kg, po by LC-MS/MS analysis; assay type: ADME, organism-based; settings: in vivo
[21] = Oral bioavailability in rat at 2 mg/kg by LC-MS/MS analysis; assay type: ADME, organism-based; settings: in vivo
[22] = MRT (0 to infinity) in rat at 1 mg/kg, iv by LC-MS/MS analysis; assay type: ADME, organism-based; settings: in vivo
[23] = AUC(0 to t) in mouse at 2 mg/kg, po by LC-MS/MS analysis; assay type: ADME, organism-based; parameters: dose 2 mg/kg, route po; settings: in vivo
[24] = AUC(0 to t) in rat at 1 mg/kg, iv by LC-MS/MS analysis; assay type: ADME, organism-based; parameters: dose 1 mg/kg, route iv; settings: in vivo
Cytochrome P450 2C9 = Cytochrome P450 2C9 (Homo sapiens, UniProt P11712); assay: Inhibition of CYP2C9 in human liver microsomes; assay type: ADME, Microsome
Chain of Cytochrome P450 2C9 (P11712 whole entry): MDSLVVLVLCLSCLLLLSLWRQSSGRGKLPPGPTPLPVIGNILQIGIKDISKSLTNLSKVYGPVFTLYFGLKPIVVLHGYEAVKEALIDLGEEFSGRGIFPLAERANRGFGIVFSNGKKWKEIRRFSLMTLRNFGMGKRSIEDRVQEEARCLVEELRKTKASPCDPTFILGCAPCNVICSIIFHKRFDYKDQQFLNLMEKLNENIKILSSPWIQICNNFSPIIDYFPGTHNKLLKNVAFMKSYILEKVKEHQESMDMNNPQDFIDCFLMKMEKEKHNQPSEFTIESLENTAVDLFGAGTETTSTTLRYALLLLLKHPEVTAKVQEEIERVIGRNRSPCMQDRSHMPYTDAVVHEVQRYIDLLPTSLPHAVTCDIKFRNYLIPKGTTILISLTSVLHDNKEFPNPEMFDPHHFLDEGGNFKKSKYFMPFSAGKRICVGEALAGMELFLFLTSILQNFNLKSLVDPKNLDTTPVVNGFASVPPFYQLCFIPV

[25] = Hepatic clearance in mouse liver microsomes; assay type: ADME, Microsome
[26] = Volume of distribution in rat at 1 mg/kg, iv by LC-MS/MS analysis; assay type: ADME, organism-based; settings: in vivo
[27] = Oral bioavailability in mouse at 2 mg/kg by LC-MS/MS analysis; assay type: ADME, organism-based; settings: in vivo
Cytochrome P450 1A2 = biological target: T1, Cytochrome P450 1A2 (Homo sapiens, UniProt P05177); assay: Inhibition of CYP1A2 in human liver microsomes; assay type: ADME, Microsome
T1 sequence (P05177 whole entry): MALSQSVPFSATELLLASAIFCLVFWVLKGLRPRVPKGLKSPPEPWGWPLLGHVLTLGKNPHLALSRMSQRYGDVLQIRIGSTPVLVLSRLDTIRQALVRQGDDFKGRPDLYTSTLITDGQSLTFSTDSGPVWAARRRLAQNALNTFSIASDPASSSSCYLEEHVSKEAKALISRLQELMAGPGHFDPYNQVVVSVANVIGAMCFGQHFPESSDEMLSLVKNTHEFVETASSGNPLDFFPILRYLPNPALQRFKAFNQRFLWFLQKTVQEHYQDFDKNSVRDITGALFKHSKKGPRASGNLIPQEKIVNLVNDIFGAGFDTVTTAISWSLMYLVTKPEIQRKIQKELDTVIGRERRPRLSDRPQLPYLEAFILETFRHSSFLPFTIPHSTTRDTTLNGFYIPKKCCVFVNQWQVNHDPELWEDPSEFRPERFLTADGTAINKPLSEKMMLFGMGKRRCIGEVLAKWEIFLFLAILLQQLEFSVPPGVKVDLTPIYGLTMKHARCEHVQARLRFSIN

[28] = Stability of compound in human liver microsomes assessed as half life; assay type: ADME, Microsome
Cytochrome P450 2D6 = Cytochrome P450 2D6 (Homo sapiens, UniProt P10635); assay: Inhibition of CYP2D6 in human liver microsomes; parameters: species or system Microsome
Chain of Cytochrome P450 2D6 (P10635 whole entry): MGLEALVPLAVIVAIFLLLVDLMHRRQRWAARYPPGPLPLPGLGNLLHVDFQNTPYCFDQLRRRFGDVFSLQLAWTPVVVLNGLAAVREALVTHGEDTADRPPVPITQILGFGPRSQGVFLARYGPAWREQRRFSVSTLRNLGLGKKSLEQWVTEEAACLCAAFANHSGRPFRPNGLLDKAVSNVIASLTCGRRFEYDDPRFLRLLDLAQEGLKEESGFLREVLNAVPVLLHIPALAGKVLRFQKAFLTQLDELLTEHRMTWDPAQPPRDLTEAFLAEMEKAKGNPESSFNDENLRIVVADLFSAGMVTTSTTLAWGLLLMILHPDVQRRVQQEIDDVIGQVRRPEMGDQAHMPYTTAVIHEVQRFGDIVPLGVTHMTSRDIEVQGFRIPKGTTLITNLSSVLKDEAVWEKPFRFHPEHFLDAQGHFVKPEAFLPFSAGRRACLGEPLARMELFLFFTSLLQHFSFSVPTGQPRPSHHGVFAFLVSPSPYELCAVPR

[29] = Clearance in mouse at 1 mg/kg, iv by LC-MS/MS analysis; assay type: ADME, organism-based; settings: in vivo
[30] = Half life in rat at 1 mg/kg, iv by LC-MS/MS analysis; assay type: ADME, organism-based; settings: in vivo
[31] = Half life in mouse at 2 mg/kg, po by LC-MS/MS analysis; assay type: ADME, organism-based; settings: in vivo
[32] = Solubility of compound in PBS at pH 7.4; assay type: physicochemical
[33] = biological target: Serine/threonine-protein kinase B-raf (Homo sapiens, UniProt P15056, V600E); assay: Inhibition of human recombinant bRAF […] mutant measured after 1 hr by TR-FRET assay
Chain of Serine/threonine-protein kinase B-raf (Homo sapiens, UniProt P15056, V600E) (P15056 2-766 V600E limits assumed): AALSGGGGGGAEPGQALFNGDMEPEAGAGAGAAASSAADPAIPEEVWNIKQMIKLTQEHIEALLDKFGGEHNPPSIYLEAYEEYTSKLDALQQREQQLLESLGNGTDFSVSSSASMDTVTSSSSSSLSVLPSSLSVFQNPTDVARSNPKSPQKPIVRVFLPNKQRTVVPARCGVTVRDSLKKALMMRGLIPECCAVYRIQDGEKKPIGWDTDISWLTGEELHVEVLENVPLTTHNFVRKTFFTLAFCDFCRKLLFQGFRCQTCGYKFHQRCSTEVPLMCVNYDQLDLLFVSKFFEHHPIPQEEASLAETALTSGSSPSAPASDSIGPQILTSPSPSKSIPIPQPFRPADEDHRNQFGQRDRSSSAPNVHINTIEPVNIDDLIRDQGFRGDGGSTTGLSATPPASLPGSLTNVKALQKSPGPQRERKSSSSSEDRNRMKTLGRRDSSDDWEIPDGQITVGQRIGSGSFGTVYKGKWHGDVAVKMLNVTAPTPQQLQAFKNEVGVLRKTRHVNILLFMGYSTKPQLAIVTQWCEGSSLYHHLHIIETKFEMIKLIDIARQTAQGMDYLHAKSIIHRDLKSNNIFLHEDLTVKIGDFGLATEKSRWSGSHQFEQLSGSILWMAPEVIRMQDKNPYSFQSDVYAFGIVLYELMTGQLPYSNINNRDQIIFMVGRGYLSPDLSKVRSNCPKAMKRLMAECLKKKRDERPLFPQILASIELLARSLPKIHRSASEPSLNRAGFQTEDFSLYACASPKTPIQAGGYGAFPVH

[34] = Cmax in mouse at 2 mg/kg, po by LC-MS/MS analysis; assay type: ADME, organism-based; parameters: dose 2 mg/kg, route po; settings: in vivo
[35] = Hepatic clearance in dog liver microsomes; assay type: ADME, Canis lupus familiaris, Microsome
[36] = Permeability of compound by PAMPA assay; assay type: ADME; settings: read-out: permeability
[37] = AUC(0 to t) in mouse at 1 mg/kg, iv by LC-MS/MS analysis; assay type: ADME, organism-based; parameters: dose 1 mg/kg, route iv; settings: in vivo
[38] = Half life in mouse at 1 mg/kg, iv by LC-MS/MS analysis; assay type: ADME, organism-based; settings: in vivo
Calu-6 = assay: Growth inhibition of human Calu-6 cells expressing KRAS Q61K mutant measured after 3 days by Cell-titer Glo assay; assay type: functional; settings: Calu-6, 72 h, time 3 day
Cytochrome P450 3A4 [39] = biological target: T2, Cytochrome P450 3A4 (Homo sapiens, UniProt P08684); assay: Inhibition of CYP3A4 in human liver microsomes using testosterone as substrate; parameters: species or system Microsome
T2 sequence (P08684 whole entry): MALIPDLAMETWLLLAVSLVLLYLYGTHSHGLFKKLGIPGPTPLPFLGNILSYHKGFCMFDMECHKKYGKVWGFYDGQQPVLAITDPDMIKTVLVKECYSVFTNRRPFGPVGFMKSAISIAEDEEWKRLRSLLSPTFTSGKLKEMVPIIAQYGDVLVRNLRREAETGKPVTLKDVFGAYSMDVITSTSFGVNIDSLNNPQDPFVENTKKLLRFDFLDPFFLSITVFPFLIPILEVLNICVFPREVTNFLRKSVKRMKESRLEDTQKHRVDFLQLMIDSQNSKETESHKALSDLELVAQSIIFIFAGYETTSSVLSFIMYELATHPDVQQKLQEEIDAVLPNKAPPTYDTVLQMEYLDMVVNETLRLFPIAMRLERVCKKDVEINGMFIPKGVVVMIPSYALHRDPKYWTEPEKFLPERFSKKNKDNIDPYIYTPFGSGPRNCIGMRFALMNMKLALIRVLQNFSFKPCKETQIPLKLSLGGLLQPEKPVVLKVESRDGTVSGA

Cytochrome P450 3A4 [40] = biological target: T2, Cytochrome P450 3A4; assay: Inhibition of CYP3A4 in human liver microsomes using midazolam as substrate; parameters: species or system Microsome

SMILES: Cc1ccc(NC(=O)c2ccnc(C(F)(F)F)c2)cc1-c1ccc2c(c1)NC1(CCOCC1)NS2(=O)=O
- GI50 (NCI-H358 [1]): 19 µM
- IC50 [2]: 0.06 µM

SMILES: Cc1ccc(NC(=O)c2ccnc(C(F)(F)F)c2)cc1-c1ccc2c(c1)OC1(CCS(=O)(=O)CC1)NC2=O
- GI50 (NCI-H358 [1]): 7.3 µM
- IC50 [2]: 0.005 µM

SMILES: Cc1ccc(NC(=O)c2ccnc(C(F)(F)F)c2)cc1-c1ccc2c(c1)OC1(CCOCC1)CC2O (centres undefined)
- GI50 (NCI-H358 [1]): 9.1 µM
- IC50 [2]: 0.019 µM

SMILES: Cc1ccc(NC(=O)c2ccnc(C(F)(F)F)c2)cc1-c1ccc2c(c1)OC1(CCOCC1)NC2=O
- Tmax [3]: 1 h
- GI50 (A-375): 2.9 µM
- half-life [4]: 1.02 h
- Cmax [5]: 52.1 ng/mL
- Tmax [6]: 4 h
- GI50 (NCI-H358 [1]): 3.4 µM
- Vd [7]: 5.87 L/kg
- AUC(0-t) [8]: 517 ng·h/mL
- Activity (NCI-H358 [9]): Active
- IC50 [2]: 0.0038 µM
- IC50 [10]: 5.9 µM
- MRT inf [11]: 1.74 h
- IC50 (Cytochrome P450 2C19): > 30 µM
- CLH [12]: 32.7 µL/min/g
- half-life [13]: 0.783 h
- IC50 [14]: 0.036 µM
- clearance [15]: 15 mL/min/kg
- half-life [16]: 4.57 h
- MRT inf [17]: 3.59 h
- CLH [18]: 13.7 µL/min/g
- half-life [19]: > 2.32 h
- MRT inf [20]: 8.14 h
- bioavailability [21]: 24%
- MRT inf [22]: 4.35 h
- AUCt [23]: 546 ng·h/mL
- AUC(0-t) [24]: 1120 ng·h/mL
- IC50 (Cytochrome P450 2C9): > 30 µM
- CLH [25]: 45 µL/min/g
- Vd [26]: 5.59 L/kg
- bioavailability [27]: 40%
- IC50 (Cytochrome P450 1A2): > 30 µM
- half-life [28]: 0.485 h
- IC50 (Cytochrome P450 2D6): > 30 µM
- clearance [29]: 24.2 mL/min/kg
- half-life [30]: 4.39 h
- t1/2 [31]: 1.91 h
- solubility [32]: 0.7 µM (≈ 0.348 µg/mL)
- IC50 [33]: 0.0294 µM
- Cmax [34]: 1.48 ng/mL
- CLH [35]: < 9.6 µL/min/g
- Papp [36]: < 0.018 ×10⁻⁶ cm/s
- AUC(0-t) [37]: 688 ng·h/mL
- half-life [38]: 2.81 h
- GI50 (Calu-6): 3.9 µM
- IC50 (Cytochrome P450 3A4 [39]): > 30 µM
- IC50 (Cytochrome P450 3A4 [40]): > 30 µM

SMILES: Cc1ccc(NC(=O)c2ccnc(C(F)(F)F)c2)cc1-c1ccc2c(c1)OC1(CCOC1)NC2=O (centres undefined)
- GI50 (NCI-H358 [1]): 8.3 µM
- IC50 [2]: 0.0043 µM

SMILES: Cc1ccc(NC(=O)c2ccnc(C(F)(F)F)c2)cc1-c1ccc2c(c1)SC1(CCOCC1)CC2=O
- GI50 (NCI-H358 [1]): 7.9 µM
- IC50 [2]: 0.029 µM

SMILES: Cc1ccc(NC(=O)c2ccnc(C(F)(F)F)c2)cc1-c1ccc2c(c1)OC1(CCSCC1)NC2=O
- GI50 (NCI-H358 [1]): 5.6 µM
- IC50 [2]: 0.007 µM

SMILES: Cc1ccc(NC(=O)c2ccnc(C(F)(F)F)c2)cc1-c1ccc2c(c1)N(O)C1(CCOCC1)NC2=O
- GI50 (NCI-H358 [1]): 8.9 µM
- IC50 [2]: 0.055 µM

SMILES: Cc1ccc(NC(=O)c2ccnc(C(F)(F)F)c2)cc1-c1ccc2c(c1)C(=O)CC1(CCOCC1)O2
- GI50 (NCI-H358 [1]): 9.7 µM
- IC50 [2]: 0.037 µM

SMILES: Cc1ccc(NC(=O)c2ccnc(C(F)(F)F)c2)cc1-c1ccc2c(c1)NC1(CCOCC1)NC2=O
- GI50 (NCI-H358 [1]): 15 µM
- IC50 [2]: 0.0048 µM
